The text below walks through data of patent publication US11299715B2, “Use of iNOS inhibitors to increase viral yield in culture” (priority 2013, dated 2022).

Test [1] has as its system wtHSV-1 KOS strain. Briefly: wtHSV-1 KOS strain propagation in 293, HeLa and Vero cells with ATA. The class given is cell-based, HSV-1. The source says: The wtHSV-1 KOS strain and the ICP27-deficient derivatives of the wtHSV-1 KOS strain: vectors d27-1 (Rice and Knipe, J. Virol. (1990) 64:1704-1715), rHSV-rep2/cap2 and rHSV-EGFP (Kang et al., Gene Ther. (2009) 16:229-239) and their producer ICP27-complementing V27 cell line were obtained from AGTC (Alachua, Fla.). The wtHSV-1 MacIntyre strain, purchased from Advanced Biotechnologies Inc. (ABI, Columbia Md.) and wtHSV-1 KOS strain were propagated in Vero, 293 or HeLa cell lines. Infectious vector particles were harvested 72 hr postinfection by recovering culture supernatant. The titers of HSV-1 stocks in DNase resistant particles/ml (DRP/ml) were determined by Taqman assay. Viral genomes within crude culture medium were quantified via treatment in the presence of DNase I (50 U/ml final; Promega) at 37° C. for 60 min, followed by proteinase K (Invitrogen) digestion (1 U/ml) at 50° C. for 60 min, and then denatured at 95° C. for 30 min. Linearized plasmid pZero 195 UL36 (obtained from AGTC, Inc., Alachua, Fla.) was used to generate standard curves.
ATA (Sigma-A1895 Aurintricarboxylic acid practical grade, ≥85% (titration), powder) stock solution was generated as 500 μM concentration in 100 mM sodium bicarbonate water solution. ATA stock solution was further diluted in DMEM+/−10% fetal bovine serum (FBS, Hyclone, Waltham, Mass.) into concentration ranges of […] ATA (8.5-21 μgATA/ml). The HSV-1 infection at multiplicity of infection of 0.15 (MOI=0.15) (typically 6×10^5 cells in a 6-well plate) was performed in 40% (⅖ vol) of the total final media volume for 1-2 hrs and the remaining media (60% or ⅗ of the total final volume) was added during the dilution step. The cells were then incubated 72 hours and supernatant harvested to perform forming units per milliliter (PFU/ml) and DRP/ml titer assays.
Supernatants containing virus were harvested after three days as described above. […] Finally, ATA also appeared to inhibit both types of HSV-1 viruses in HeLa cells. Two-way ANOVA; Bonferroni test; −ATA vs. +ATA: ***: p<0.001, ns: p>0.05; n=4 independent experiments.
In order to illuminate the ATA mechanism of action by human genome array and the fact that Vero and V27 are monkey-derived cell lines, wtHSV-1 propagation was tested in several human cell lines (FIGS. 4A-4B). A propagation of two wild type HSV-1 (wtHSV-1) strains, KOS and McIntyre, were compared in three cell lines: human embryonic kidney 293 (293 cells), human cervical cancer HeLa cells and African green monkey kidney epithelial Vero cells. The experiments were carried out in 10% FBS-containing media following the ATA I protocol scheme, where 50 μM ATA was supplemented during the infection step and further diluted to 20 μM ATA concentration (see Material and Methods).

The subject of test [2] is NOS1 = nNOS. Briefly: Affymetrix Gen Array, NOS1 expression in 293 cells. The class given is cell-based, human. Conditions: for NOS1 expression, ATA: ATA alone. How it is done:
(§1) Confluent 293 cells (2.4×10^6 cells in a 75 cm^2 flask) were cultured in DMEM+10% FCS for approximately 20 hrs and were then infected with one plaque forming unit per cell (PFU/cell) of HSV-1 MacIntyre Strain for 90 min. ATA at a concentration 20 μM (final) was added 90 min post-infection. The infected cells were harvested at 24 h after infection. Total RNA of sufficient quality and quantity was isolated from suspension using RNeasy Plus Mini Kit (QIAGEN, Valencia, Calif.) according to the manufacturer's instructions. Whole genome expression profiling was performed on Affymetrix Human U133 Plus 2.0 Array by the Asuragen, Inc. 3 μg total RNA was provided as input material.
(§2) Overall, RNA quality assessed on the bioanalyzer had RIN values of >9. Array hybridization and scaling factors were within passing quality control range. After scanning, raw expression CEL files were processed with Affymetrix Expression Console vs.1.1.2 (affymetrix.com). Each CEL file was processed with Robust Multichip Analysis (RMA) and a summarized table was exported as a text file. All downstream genomics and statistical analyses were done with JMP Genomics (version 5) (jmp.com/software/genomics). First, a filtering step was applied to filter-out low expression, specifically, those values below 6 in log^2 mode in at least 2 out of 8 samples. Out of 54,675 total Affy U133 Plus2 probes, 41,569 (76%) probes remained after the cutoff. Two positive control samples were also seen, human brain and pooled human universal reference RNA, respectively, that hybridized well. For future analysis, these two samples were excluded.
The first principle component separation (91.7%) is therefore explained by the effect of HSV versus Vehicle. Data was median-normalized across each probe to have a median signal of 0. ANOVA was performed to find significant differential transcripts between HSV versus Vehicle, ATA versus Vehicle, […] versus Vehicle, and HSV+ATA versus HSV alone. Multiple testing corrections were not included, and significant genes were considered less that p-value of 0.01.
To identify cell response gene signatures to wtHSV-1 McIntyre infection, transcriptional profiling was done using Affymetrix Human U133 Plus 2.0 Array with 293 cells that were either mock-treated, ATA-treated (ATA), wtHSV-1 McIntyre-infected (HSV) or ATA-treated and wtHSV-1 McIntyre-infected (HSV&ATA) for 24 h. Gene expression changes induced by infection or ATA treatment were identified by referencing the gene expression level for each probe to that corresponding in the uninfected cells sample. HSV-1 infection alone had strong impact on the gene expression profile of 293 cells when compared to untreated cells gene profile.

Test [3] has as its system NOS2 = iNOS. Briefly: Affymetrix Gen Array, NOS2 expression in 293 cells. The class given is cell-based, human. Conditions: AF049656. How it is done: as §1
as §2, with “Out of 54,675 total Affy U133 Plus2 probes, 41,569 (76%) probes remained after the cutoff. Two positive control samples were also seen, human brain and pooled human universal reference RNA, respectively, that hybridized well. For future analysis, these two samples were excluded.” left out

SMILES strings stand for the structures.

In the case of `O=C(O)C1=CC(=C(c2ccc(O)c(C(=O)O)c2)c2ccc(O)c(C(=O)O)c2)C=CC1=O` [ATA, 5-((3-carboxy-4-hydroxyphenyl)(3-carboxy-4-oxo-2,5-cyclohexadien-1-ylidene)methyl)-2-hydroxybenzoic acid], the “HSV-1 KOS growth in 293 cells” value in test [1] (50 μM ATA at Step 1, 20 μM after Step 2, 293 cells) is “inhibit”. In addition, the “propagation of HSV-1 KOS in HeLa cells” value in test [1] (50 μM ATA at Step 1, 20 μM after Step 2, HeLa cells) is “inhibit”. Moreover, the “yield of wtHSV-1 KOS in Vero cells” value in test [1] (50 μM ATA at Step 1, 20 μM after Step 2, Vero cells, 10% FBS) is “increased”. In addition, the “wtHSV-1 KOS titer in Vero cells” value in test [1] (50 μM ATA at infection, diluted to 20 μM, 10% FBS, n=4, without ATA 1.7×10^8) is 9.1×10^8 DRP/ml. The “293 or Vero titers with ATA, KOS” value in test [1] (summary statement) was “up to 1×10^9 DRP/ml”. Moreover, the “increase of wt HSV-1 KOS yields” value in test [1] (summary statement) was 1 log. In addition, the “NOS1 expression, ATA” value was 1 in test [2] (probe 207310_s_at) and 1.02 in test [2] (probe 240911_at). For the same compound, the “NOS1 expression, HSV + ATA” value in test [2] (probe 207310_s_at, HSV alone 2.79) is recorded as 1.67; in test [2] (probe 240911_at, HSV alone 1.71), 1.5. For the same compound, the “NOS2 expression, ATA” value in test [3] (ATA alone) was −1.03. Moreover, the “NOS2 expression, HSV + ATA” value in test [3] (HSV + ATA, HSV alone 2.05) stood at 1.72.
